Measurements taken from publication PMC4536076, “Chemical Library Screening and Structure-Function Relationship Studies Identify Bisacodyl as a Potent and Selective Cytotoxic Agent Towards Quiescent Human Glioblastoma Tumor Stem-Like Cells” (PLoS ONE, 2015).
Counter-ions that a name gives are not always drawn.

Columns and labels:
proliferating TG1 GSCs = settings: primary screen, 50 μM, 24 h
Experimental: (§1) Proliferating or quiescent TG1 GSCs were seeded (30 000 and 40 000 viable cells/well, respectively) into 96-well opaque bottom plates (Greiner) with the Biomek FX robot (Beckman Coulter). Each compound from the Prestwick Library was then added (final concentration: 50 μM; 1% DMSO). Each molecule was tested once. Negative control wells (12/96 per assay plate) contained cells treated with 1% DMSO (final concentration) and positive control wells (4/96 per assay plate) contained cells treated with the fungal toxin ophiobolin A (Sigma Aldrich) at 50 μM with 1% DMSO. […] Luminescence in each well was measured with the Victor3 plate reader (PerkinElmer).
(§2) Relative ATP levels in each well were determined by calculating the percentage of luminescent signal in the well with respect to the average signal measured in negative control wells.
(§3) Primary screen hits were further tested in duplicate, at two concentrations (50 and 5 μM) on proliferating and quiescent TG1 GSCs. Cell plating and treatment with compounds were as for the primary screen. Hit selection/confirmation criteria for quiescent cells were as described above.

quiescent TG1 GSCs = settings: primary screen, 50 μM, 24 h
Experimental: as §1, §2, §3

| SMILES | Activity on proliferating TG1 GSCs (hit compounds reducing ATP levels) (proliferating TG1 GSCs) | Activity on quiescent TG1 GSCs (hit compounds reducing ATP levels) (quiescent TG1 GSCs) |
| --- | --- | --- |
| CN[C@H]1CC[C@@H](c2ccc(Cl)c(Cl)c2)c2ccccc21 [Sertraline] | yes | yes |
| CC/C(=C(\c1ccccc1)c1ccc(OCCN(C)C)cc1)c1ccccc1 [Tamoxifen citrate] | yes | yes |
| C[n+]1cc2c3c(ccc2c2ccc4cc5c(cc4c21)OCO5)OCO3 [Sanguinarine] | yes | yes |
| C[C@H]1CC[C@]2(NC1)O[C@H]1C[C@H]3[C@@H]4CC[C@H]5C[C@@H](O[C@@H]6O[C@H](CO)[C@H](O[C@@H]7O[C@H](CO)[C@@H](O)[C@H](O[C@@H]8OC[C@@H](O)[C@H](O)[C@H]8O)[C@H]7O[C@@H]7O[C@H](CO)[C@@H](O)[C@H](O)[C@H]7O)[C@H](O)[C@H]6O)CC[C@]5(C)[C@H]4CC[C@]3(C)[C@H]1[C@@H]2C [Tomatine] | yes | yes |
| CCCCc1oc2ccccc2c1C(=O)c1cc(I)c(OCCN(CC)CC)c(I)c1 [Amiodarone hydrochloride] | yes | yes |
| Clc1ccc(CCC(Cn2ccnc2)Sc2c(Cl)cccc2Cl)cc1 (stereo not drawn) [Butoconazole nitrate] | yes | yes |
| CCN(CC)CCOc1ccc(C(=C(Cl)c2ccccc2)c2ccccc2)cc1.O=C(O)CC(O)(CC(=O)O)C(=O)O [Clomiphene citrate (Z, E)] | yes | yes |
| COc1cc2nc(N3CCN(C(=O)c4ccco4)CC3)nc(N)c2cc1OC [Prazosin hydrochloride] | yes | yes |
| OC(c1cc(C(F)(F)F)nc2c(C(F)(F)F)cccc12)C1CCCCN1 (stereo not drawn) [Mefloquine hydrochloride] | yes | yes |
| CC[C@H]1CN2CCc3cc(OC)c(OC)cc3[C@@H]2C[C@@H]1C[C@H]1NCCc2cc(O)c(OC)cc21.Cl.Cl.O.O.O.O.O.O.O [Cephaeline dihydrochloride heptahydrate] | yes | yes |
| O=C(N/N=C/c1ccc([N+](=O)[O-])o1)c1ccc(O)cc1 [Nitrofuroxazide] | yes | yes |
| CCOC1O[C@H]([C@@H](COCc2ccccc2)OCc2ccccc2)[C@H](OCc2ccccc2)[C@H]1O (stereo partly drawn) [Tribenoside] | yes | yes |
| Clc1ccc(C(Cn2ccnc2)OCc2csc3c(Cl)cccc23)c(Cl)c1 (stereo not drawn) [Sertaconazole nitrate] | yes | yes |
| CC(=O)O[C@H]1C[C@H](O[C@H]2[C@@H](O)C[C@H](O[C@H]3[C@@H](O)C[C@H](O[C@H]4CC[C@@]5(C)[C@H](CC[C@@H]6[C@@H]5C[C@@H](O)[C@]5(C)[C@@H](C7=CC(=O)OC7)CC[C@]65O)C4)O[C@@H]3C)O[C@@H]2C)O[C@H](C)[C@H]1O[C@@H]1O[C@H](CO)[C@@H](O)[C@H](O)[C@H]1O [Lanatoside C] | yes | yes |
| CC1=CC(=O)c2ccccc2C1=O [Menadione] | yes | yes |
| CCCCCCCCCCCCCCCC[N+](C)(C)CCN(Cc1ccc(OC)cc1)c1ncccn1 [Thonzonium bromide] | yes | yes |
| CC[C@@H](C(=O)[C@@H](C)[C@@H](O)[C@H](C)CCc1ccc(C)c(O)c1C(=O)[O-])[C@H]1O[C@](CC)([C@H]2CC[C@](O)(CC)[C@H](C)O2)C[C@@H]1C.[Na+] [Lasalocid sodium salt] | yes | yes |
| Clc1ccccc1C(c1ccccc1)(c1ccccc1)n1ccnc1 [Clotrimazol] | yes | yes |
